Assays:
HCT-116 = assay: Antiproliferative activity against human HCT-116 cells after 72 hrs by MTT assay; type: functional, cell-based; details: HCT-116, 72 h
[1] = Antiproliferative activity against human HEK293 cells after 72 hrs by MTT assay; type: toxicity, cell-based
U2OS = assay: Antiproliferative activity against human U2OS cells after 72 hrs by MTT assay; type: functional, cell-based
A549 = assay: Antiproliferative activity against human A549 cells after 72 hrs by MTT assay; type: functional, cell-based; details: A549, 72 h
MCF7 = assay: Antiproliferative activity against human MCF7 cells after 72 hrs by MTT assay; type: functional, cell-based; details: MCF7, 72 h
HepG2 = assay: Antiproliferative activity against human HepG2 cells after 72 hrs by MTT assay; type: functional, cell-based; details: HepG2, 72 h

Row | Compound | IC50 (HCT-116) [µM] | IC50 at 72 h [1] [µM] | IC50 (U2OS) [µM] | IC50 (A549) [µM] | IC50 (MCF7) [µM] | IC50 (HepG2) [µM]
1 | CCOC(=O)c1c(O)c(NC(=O)c2ccc(C)o2)cc2c1[nH]c1ccccc12 | > 50 | > 50 | > 50 | > 50 | > 50 | > 50
2 | O=c1[nH]cc(F)c(=O)[nH]1 [FLUOROURACIL] | 5.78 | 41 | 13 | 8.12 | 8.41 | 19
3 | CCOC(=O)CC(=O)C(Cc1c[nH]c2ccccc12)NC(=O)OC(C)(C)C (stereo not given) | > 50 | > 50 | > 50 | > 50 | > 50 | > 50
4 | CCOC(=O)c1c(O)c(NC(=O)c2ccc(CC)o2)cc2c1[nH]c1ccccc12 | > 50 | > 50 | > 50 | > 50 | > 50 | > 50
5 | CCOC(=O)c1c(OC(=O)c2ccc(C)o2)c(NC(=O)c2ccc(C)o2)cc2c1[nH]c1ccc(NC(=O)c3ccc(C)o3)cc12 | > 50 | > 50 | > 50 | > 50 | > 50 | > 50
